Test results taken from patent US6066619A, “Non-aqueous protic peptide formulations” (Alza Corporation, priority 1999, dated 2000).

Test: Gelation of non-aqueous protic solvent formulations on adding polar aprotic solvent
Format: physicochemical
Settings: adding polar aprotic solvents such as DMSO to non-aqueous protic solvent formulation
From the text: Thus, these solvents have an anti-gellant effect.

Gelation of the formulation, prevents gelation:
CC(C)C[C@H](NC(=O)[C@@H](COC(C)(C)C)NC(=O)[C@H](Cc1ccc(O)cc1)NC(=O)[C@H](CO)NC(=O)[C@H](Cc1c[nH]c2ccccc12)NC(=O)[C@H](Cc1cnc[nH]1)NC(=O)[C@@H]1CCC(=O)N1)C(=O)N[C@@H](CCCNC(=N)N)C(=O)N1CCC[C@H]1C(=O)NNC(N)=O [goserelin]
CCNC(=O)[C@@H]1CCCN1C(=O)[C@H](CCCNC(=N)N)NC(=O)[C@H](CC(C)C)NC(=O)[C@@H](CC(C)C)NC(=O)[C@H](Cc1ccc(O)cc1)NC(=O)[C@H](CO)NC(=O)[C@H](Cc1c[nH]c2ccccc12)NC(=O)[C@H](Cc1c[nH]cn1)NC(=O)[C@@H]1CCC(=O)N1 [leuprolide]
calcitonin
